Source: ChEMBL document CHEMBL1157539, “Thousands of chemical starting points for antimalarial lead identification” (Nature, 2010)

What follows are molecules tested on Plasmodium falciparum (assay: GSK_TCMDC: Inhibition of Plasmodium falciparum 3D7 in whole erythrocytes, using parasite LDH activity as an index of growth.). Settings: Plasmodium falciparum, 3D7.
Type: functional, organism-based

Compound	XC50 [nM]
Oc1cc(NC[C@@H]2CCC[C@@H]2NCc2ccc(Cl)c(Cl)c2)nc2ccccc12	602
CC(C)c1ccc(-c2nc3cc(Cl)cnc3[nH]2)cc1	857
O=C(/C=C/c1ccc(Cl)c(Cl)c1)NCCCCCN1CCC(c2c[nH]c3c(-c4ccccc4)cccc23)CC1	246
Cc1ccc(C(=O)Nc2cc(S(=O)(=O)N3CCCC3)ccc2OCC(F)(F)F)cc1	851
NCc1ccc(-c2ccc3c(N)nccc3c2)cc1	885
Cn1c(CN2CCC(N3CCc4cc(NC(=O)c5ccco5)ccc43)C2)cc2ccccc21 (centres undefined)	876
Fc1ccc2[nH]c(-c3cccc(-c4cccc(CN5CCN(c6ccncc6)CC5)c4)c3)nc2c1	145
O=C(Cc1cccs1)NC(CCCN1CCC(Oc2cccc(Cl)c2)CC1)c1ccc(Cl)c(Cl)c1 (centres undefined)	247
O=C(Nc1ccc(Cl)cc1)OCCn1nnnc1C(c1ccc(Cl)cc1)N1CCOCC1 (centres undefined)	1180
c1ccc(Oc2ccc(Nc3ccnc4cc(-c5cccc(CNCCN6CCOCC6)c5)ccc34)cc2)cc1	391
COc1cc(Cc2cnc(N)nc2N)cc(OCCCCC2NC(=O)NC2=O)c1OC (centres undefined)	714
Clc1cc(Cl)cc(Nc2ccnc(Nc3cc(Cl)cc(Cl)c3)n2)c1	672
COc1ccc(-c2cccc(NC(=O)c3ccc(F)cc3)c2)cc1CNC(C)C	1380
COc1ccc(CNC2CCN(C)CC2)cc1-c1ccc(S(=O)(=O)NCc2cccnc2)s1	835
CCC(C)(C)c1ccc(OCC(O)CN2CCCCC2)c(C(C)(C)CC)c1 (centres undefined)	1300
Nc1cccc(C=CC(=O)N=c2cc[nH]c3ccccc23)c1	1060
CCc1cn2c3c(cc(C(=O)N[C@@H](Cc4cc(F)cc(F)c4)[C@H](O)CNC4CC4)cc13)N(C)S(=O)(=O)CC2	119
Cc1cccc2nc(-c3ccc(-c4cccc(CN5CCC(C(N)=O)CC5)c4)s3)[nH]c12	1260
CCc1ccc(C2CCN(CCCCNC(=O)c3ccc(NC(=O)c4ccc(Cl)cc4)cc3)CC2)c(OC(C)=O)c1	145
CN1CCN(c2nsc3ccc(-c4ccc(OCCN5CCCC5)cc4)cc23)CC1	826
O=C(O[C@@H]1CN[C@H](C#Cc2cc3ncnc(Nc4ccc5c(cnn5Cc5cccc(F)c5)c4)c3s2)C1)N1CCCC1	757
COc1ccc(-c2ccc(Nc3cccc(S(=O)(=O)CCN4CCC(CCN(C)C)CC4)c3)nc2)cn1	1120
O=C(NC1CCCc2ccccc21)C1CCCN(C(=O)c2ccc(O)c(-c3ccc(Cl)c(Cl)c3)c2)C1 (centres undefined)	1140
CC(c1cccc(S(=O)(=O)NCc2cccc(C(F)(F)F)c2)c1)N1CCC(N2CCCCC2)CC1 (centres undefined)	695

Compound	XC50 [nM]
CC1(C)NC(N)=NC(=N)N1OCCCc1cccc(C(F)(F)F)c1	3.2
CCCN1CCc2c(sc3nc(SCC(=O)Nc4ccc(C)cc4)n(-c4ccc(C)cc4)c(=O)c23)C1	869
FC(F)(F)c1ccc2[nH]c(-c3ccc(-c4cccc(CNCC5CCCO5)c4)s3)nc2c1 (centres undefined)	367
COc1ccc2c(=NN=Cc3ccc(OC)c4ccccc34)cc(C)[nH]c2c1	599
Oc1cccc(-c2nc(-c3ccccc3)c(-c3ccc(Oc4ccc(-c5[nH]c(-c6cccc(O)c6)nc5-c5ccccc5)cc4)cc3)[nH]2)c1	855
COc1ccc(C(=O)N[C@@H](CC(C)C)C(=O)NC2CC[C@@H](C)N(C(=O)Nc3ccc(Cl)cc3)CC2=O)cc1OCCN1CCOCC1 (some centres undefined)	152
CN1CCN(Cc2c(O)ccc3c(=O)c(Oc4ccc(C(C)(C)C)cc4)c(C(F)(F)F)oc23)CC1	812
O=C(Nc1cccc(-c2ccc(-c3nc4cc(C(F)(F)F)ccc4[nH]3)cc2)c1)c1ccoc1	714
N#Cc1ccccc1N1CCN(C2CCC(NC(=O)c3n[nH]c4cc(C(F)(F)F)ccc34)CC2)CC1 (centres undefined)	1370
CN1CCCc2ccc(NC(=O)C=Cc3ccc(-c4ccc(F)cc4F)o3)cc2C1	522
CN1CCCC(CN2CCN(Cc3ccc(-c4ccc(-c5nc6cc(F)ccc6[nH]5)s4)cc3)CC2)C1 (centres undefined)	127
O=C(Nc1cccc(-c2nn3ncccc3c2-c2ccnc(Nc3cccnc3)n2)c1)c1c(F)cccc1F	528
O=S(=O)(c1cccc(F)c1)c1ccc(Nc2ncnc3cc(Br)sc23)cc1Cl	1030
CC(C)[C@H](NC(=O)c1c(F)cccc1F)C(=O)Nc1ccc(Cc2nc3ccccc3s2)cc1	498
CCCC(C(CC1CCC(C)CC1)C(=O)NC(CCCNc1ncccn1)C(=O)Nc1nccs1)N(O)C=O (centres undefined)	187
COc1ccc2nc(N(CCCn3ccnc3)C(=O)C=Cc3cccs3)sc2c1	1050
CC(Cc1ccc(NC(=O)c2ccc(CNCc3ccccc3)cc2)cc1)N(CCc1cccc(Cl)c1)C(=O)OC(C)(C)C (centres undefined)	974
COc1ccc(CCc2ccc(-c3c(C)[nH]c(C)c(Cl)c3=O)cc2)cc1OC	94
COc1ccc(CN(C2CC2)C(C)C(=O)c2[nH]c(C)c(C(C)=O)c2C)cc1 (centres undefined)	1590
O=C(/C=C/c1ccc(Cl)c(Cl)c1)NCCCCCN1CCC(NC(=O)Nc2ccc(Cl)c(Cl)c2)CC1	892
CCC[C@@H]([C@@H](CC1CCCCC1)C(=O)N[C@H](C(=O)Nc1nccs1)C(C)(C)SCCOCCOCC)N(O)C=O	82.2
O=C(CCc1cccnc1)Nc1cccc(-c2ccc(-c3nc4cc(C(F)(F)F)ccc4[nH]3)cc2)c1	867
Cc1cc(C(F)(F)F)n2nc(C3CCN(Cc4cc(C)c(O)c(C)c4)C3)cc2n1 (centres undefined)	758
CC(COc1ccc2c(c1)OC(C)(C)CC2c1ccccc1)NCC(O)c1cccc(Cl)c1 (centres undefined)	752

Compound	XC50 [nM]
Fc1ccc2[nH]c(-c3ccc(-c4ccc(CNCc5cnn(-c6ccccc6)n5)cc4)cc3)nc2c1	540
CCC(=C(CC)c1ccc(O)c(CNC2CCCCC2)c1)c1ccc(O)c(CNC2CCCCC2)c1	152
OC(c1cccc(OCc2ccccc2)c1)C1CN(CCc2ccccc2)CCC1(O)c1ccccc1 (centres undefined)	218
Nc1nccc2ccc(-c3ccc4nccn4c3)cc12	101
Cc1cc(OCCCN2CCC(NS(=O)(=O)c3ccc(Cl)c(Cl)c3)CC2)c2ccccc2n1	897
COc1ccc2c(c1)[nH]c1c(C=Cc3ccccc3)nccc12	379
CCC1N=C(N)N=C(N)N1OCc1cccc2ccccc12 (centres undefined)	3.2
O=C(c1cccc(-c2ccc(-c3nc4cc(C(F)(F)F)ccc4[nH]3)cc2)c1)N1CCCCC1CN1CCC(O)C1 (centres undefined)	465
Cc1ccc(NC(=O)c2ccc(CN3CCCN(Cc4cccc(O)c4)CC3)cc2)cc1	743
CC(CCc1ccccc1)NCC(O)c1ccc2c(c1)S(=O)(=O)c1ccccc1N2 (centres undefined)	1220
COc1cccc(OC2CCN(C(=O)c3ccc(-c4ccc(N5CCCC5=O)cc4C)cc3)CC2)c1	1010
COc1ccc2ncc(F)c([C@@H](O)CN3CCC(NCc4cc5c(cn4)OCS5)CC3)c2c1	141
O=C(Nc1ccc2c(c1)CCC2)c1ccc(N2CCN(c3ccncc3)CC2)cn1	862
CN(C)[C@@H]1C(O)=C(C(N)=O)C(=O)[C@@]2(O)C(O)=C3C(=O)c4c(O)ccc(C#Cc5ccccn5)c4C[C@H]3C[C@@H]12	760
COc1ccc2[nH]c(C)cc(=NN=Cc3ccc(Cl)cc3)c2c1	228
CN(C)CCCNCCS(=O)(=O)c1cccc(Nc2ccc(-c3cccc(N(C)C)c3)cn2)c1	859
COc1ccccc1N1CCN(C(C(=O)NCc2cccc(F)c2)c2ccc(C)cc2)CC1 (centres undefined)	892
CN(c1ccc(NC(=O)CCOc2ccccc2)cc1)C1CCN(Cc2cccc(O)c2)CC1	1320
c1ccc(COc2ccc(COc3ccc(Cn4ccnc4)cc3)cc2)cc1	947
Cc1cccc2nc(-c3ccc(-c4cccc(CN5CCC(C(N)=O)CC5)c4)cc3)[nH]c12	1770
Cc1ccc(NC(=O)c2ccc3ncccc3c2)cc1OC1CCN(Cc2ccco2)C1 (centres undefined)	1250
O=C(CCCCCNC(=O)c1ccc(O)c(-c2ccc(Cl)c(Cl)c2)c1)NC1CCCc2ccccc21 (centres undefined)	759
COc1ccc2nccc([C@@H](O)CN3CCC(CO)(NCc4cc5ccccc5o4)CC3)c2c1	1370
COc1cccc(C(=O)Nc2ccc(-c3nc4ccccc4[nH]3)cc2)c1	802

Compound	XC50 [nM]
COc1cc(F)c2ncc(Cl)c([C@H](O)CN3CCC(NCc4ccc5c(n4)NC(=O)CO5)CC3)c2c1	161
COc1ccccc1CN1CCC(CNC(=O)c2cc(-c3ccc(N(C)C)cc3)cs2)C1 (centres undefined)	1270
O=C(NC1CCN(Cc2ccc(O)cc2)CC1)c1ccc(Cl)c(Cl)c1	1180
CC(=O)Nc1ccc(OCCCCN(Cc2ccccc2C(F)(F)F)c2ccc(C#N)c(C(F)(F)F)c2)cc1	1390
O=C(c1csc(-c2cccnc2)n1)N1CCc2cc3nccc(N4CCN5CCC[C@H]5C4)c3cc21	695
COc1cccc(CN2CCC(CCOC(c3ccccc3)c3ccccc3)CC2)c1O	730
CN1CCCN(c2ccnc3cc4c(cc23)N(C(=O)c2ccc(Cl)c(Cl)c2)CC4)CC1	870
Nc1ncc(-c2cccc(F)c2)cc1-c1nc2cc(F)ccc2[nH]1	175
OC(CN1c2ccccc2Sc2ccccc21)CN(C1CCCCC1)C1CCCCC1 (centres undefined)	651
O=C(Nc1cccc(-c2ccc(-c3nc4cc(C(F)(F)F)ccc4[nH]3)cc2)c1)c1cccnc1	572
O=C(Nc1cccc(-c2ccc(-c3nc4cc(F)ccc4[nH]3)cc2)c1)Nc1ccc(Cl)c(Cl)c1	139
O=C(c1ccc(-c2ccc(-c3nc4ccccc4[nH]3)s2)cc1)N1CCCCC1CN1CCC(O)C1 (centres undefined)	1050
CC(=O)N(C)C1CCN(Cc2ccc(-c3ccc(-c4nc5cc(F)ccc5[nH]4)s3)cc2)C1 (centres undefined)	971
O=C(/C=C/c1ccc(Cl)c(Cl)c1)NCCCCCN1CCCC(CCCNC(=O)Nc2ccc(C(F)(F)F)cc2)C1 (centres undefined)	525
Cc1[nH]c(C)c(-c2ccc(C#Cc3ccc(F)cc3F)cc2)c(=O)c1Br	30.1
CC1(C)Cc2c([nH]c3ccccc23)C(CCCCCCCCC2=NC(C)(C)Cc3c2[nH]c2ccccc32)=N1	933
Oc1cccc(/C=N/Nc2ccnc3cc(Cl)ccc23)c1	728
COc1ccc2ncc(C#N)c(CCN3C[C@H](CNCc4ccccc4)[C@H](O)C3)c2n1	1060
COc1ccc2[nH]c(C)cc(=NN=Cc3cccc(F)c3)c2c1	285
CC1(C)N=C(NC(=O)Nc2ccc([N+](=O)[O-])cc2)N=C(N)N1OCc1cccc2ccccc12	59.5
C=C[C@H]1CN2CC[C@H]1C[C@H]2[C@H](O)c1ccnc2ccc(OC)cc12	426
COc1ccccc1CCNC(=O)c1cc(Br)cc(N2CCN(c3ccncc3)CC2)c1	1270
